In PMC4457528, “Identification of Novel Small Molecule Inhibitors of Oncogenic RET Kinase” (PLoS ONE, 2015):
Read-outs that look alike come from different tables or passages of the source.

How the values were obtained:
Experiment in all cases: KinomeScan kinase panel, single concentration 10 µM
Format in all cases: binding
KinomeScan kinase panel [1] = biological target: T1, KinomeScan kinase panel (Homo sapiens, UniProt P53350); settings: PLK1, 10 µM; read-out: score (%)
T1 construct: purchased DiscoveRx (KinomeScan)
T1 sequence (P53350 whole entry): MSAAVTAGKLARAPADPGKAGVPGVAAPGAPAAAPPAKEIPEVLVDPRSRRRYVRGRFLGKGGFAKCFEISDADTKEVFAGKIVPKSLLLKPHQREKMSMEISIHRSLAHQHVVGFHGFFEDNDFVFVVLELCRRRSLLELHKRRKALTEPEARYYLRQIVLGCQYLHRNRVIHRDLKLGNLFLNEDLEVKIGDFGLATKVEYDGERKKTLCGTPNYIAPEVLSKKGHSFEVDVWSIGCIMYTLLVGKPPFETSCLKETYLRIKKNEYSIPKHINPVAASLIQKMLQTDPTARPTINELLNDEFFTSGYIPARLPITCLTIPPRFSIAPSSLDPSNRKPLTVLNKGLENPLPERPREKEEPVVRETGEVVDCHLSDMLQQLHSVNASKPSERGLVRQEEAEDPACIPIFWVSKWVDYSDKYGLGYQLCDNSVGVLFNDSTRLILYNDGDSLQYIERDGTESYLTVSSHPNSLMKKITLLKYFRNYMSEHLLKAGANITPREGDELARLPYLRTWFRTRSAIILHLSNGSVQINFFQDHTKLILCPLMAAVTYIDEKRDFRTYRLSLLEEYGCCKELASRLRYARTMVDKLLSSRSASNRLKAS

KinomeScan kinase panel [2] = biological target: T2, KinomeScan kinase panel (Homo sapiens, UniProt P29323); settings: EPHB2, 10 µM
T2 construct: purchased DiscoveRx (KinomeScan)
T2 sequence (P29323 19-1055): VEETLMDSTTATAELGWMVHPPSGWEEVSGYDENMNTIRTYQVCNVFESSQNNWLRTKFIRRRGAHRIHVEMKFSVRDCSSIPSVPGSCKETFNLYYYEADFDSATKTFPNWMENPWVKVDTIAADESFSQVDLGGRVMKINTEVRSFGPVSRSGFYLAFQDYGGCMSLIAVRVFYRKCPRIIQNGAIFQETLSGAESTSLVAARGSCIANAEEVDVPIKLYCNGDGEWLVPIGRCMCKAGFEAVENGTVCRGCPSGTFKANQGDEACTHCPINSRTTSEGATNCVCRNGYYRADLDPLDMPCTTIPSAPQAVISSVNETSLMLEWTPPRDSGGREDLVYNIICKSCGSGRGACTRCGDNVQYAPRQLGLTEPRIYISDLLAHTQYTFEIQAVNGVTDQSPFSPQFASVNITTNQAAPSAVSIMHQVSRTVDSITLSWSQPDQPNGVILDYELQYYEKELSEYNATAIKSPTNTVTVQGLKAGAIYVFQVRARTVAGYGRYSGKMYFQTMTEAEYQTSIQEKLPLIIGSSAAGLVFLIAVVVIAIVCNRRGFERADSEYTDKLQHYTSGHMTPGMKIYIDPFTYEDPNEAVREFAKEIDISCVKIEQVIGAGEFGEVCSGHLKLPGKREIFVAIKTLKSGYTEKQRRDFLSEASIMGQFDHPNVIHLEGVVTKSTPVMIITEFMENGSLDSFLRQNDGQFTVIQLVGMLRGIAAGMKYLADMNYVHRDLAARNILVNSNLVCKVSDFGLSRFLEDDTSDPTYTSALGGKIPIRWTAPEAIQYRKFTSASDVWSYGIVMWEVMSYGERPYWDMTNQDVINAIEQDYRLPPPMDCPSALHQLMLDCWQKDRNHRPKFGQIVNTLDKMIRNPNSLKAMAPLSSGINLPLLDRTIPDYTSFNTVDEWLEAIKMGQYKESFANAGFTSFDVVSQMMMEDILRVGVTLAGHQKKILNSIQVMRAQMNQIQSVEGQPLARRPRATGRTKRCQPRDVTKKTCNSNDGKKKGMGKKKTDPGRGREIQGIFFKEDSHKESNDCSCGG

KinomeScan kinase panel [3] = biological target: T3, KinomeScan kinase panel (Homo sapiens, UniProt Q6PHR2); settings: kinase ULK3; 10 µM
T3 construct: purchased DiscoveRx (KinomeScan)
T3 sequence (Q6PHR2 1-472): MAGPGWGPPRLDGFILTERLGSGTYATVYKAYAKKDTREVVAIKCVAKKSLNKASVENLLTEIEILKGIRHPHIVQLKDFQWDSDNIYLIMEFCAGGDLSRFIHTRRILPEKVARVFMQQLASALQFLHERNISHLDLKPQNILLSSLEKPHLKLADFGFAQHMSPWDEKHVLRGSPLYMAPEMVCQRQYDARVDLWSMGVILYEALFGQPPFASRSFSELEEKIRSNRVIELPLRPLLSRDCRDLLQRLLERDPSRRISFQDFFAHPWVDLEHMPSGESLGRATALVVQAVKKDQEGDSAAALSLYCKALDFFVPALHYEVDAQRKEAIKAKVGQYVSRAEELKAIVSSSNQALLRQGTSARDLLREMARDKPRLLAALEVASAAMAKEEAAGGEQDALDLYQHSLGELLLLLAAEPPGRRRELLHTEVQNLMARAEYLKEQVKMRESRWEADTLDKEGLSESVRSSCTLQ

KinomeScan kinase panel [4] = biological target: T4, KinomeScan kinase panel (Homo sapiens, UniProt Q13882); settings: read-out: score (%)
T4 construct: purchased DiscoveRx (KinomeScan)
T4 sequence (Q13882 whole entry): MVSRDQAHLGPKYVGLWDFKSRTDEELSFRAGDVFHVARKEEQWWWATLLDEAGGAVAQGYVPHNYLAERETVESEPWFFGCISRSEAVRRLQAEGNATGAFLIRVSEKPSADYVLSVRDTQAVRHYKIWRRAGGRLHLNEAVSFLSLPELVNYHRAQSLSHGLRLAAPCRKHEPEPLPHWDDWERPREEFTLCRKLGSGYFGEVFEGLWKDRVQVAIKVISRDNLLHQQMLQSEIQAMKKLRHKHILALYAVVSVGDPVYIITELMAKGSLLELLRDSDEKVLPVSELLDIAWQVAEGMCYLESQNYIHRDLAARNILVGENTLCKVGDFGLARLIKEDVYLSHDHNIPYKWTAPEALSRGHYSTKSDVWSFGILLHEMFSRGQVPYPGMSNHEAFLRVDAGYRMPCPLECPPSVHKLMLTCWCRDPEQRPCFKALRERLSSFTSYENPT

KinomeScan kinase panel [5] = biological target: T5, KinomeScan kinase panel (Homo sapiens, UniProt Q16816); settings: PHKG1, 10 µM; read-out: score (%)
T5 construct: purchased DiscoveRx (KinomeScan)
T5 sequence (Q16816 whole entry): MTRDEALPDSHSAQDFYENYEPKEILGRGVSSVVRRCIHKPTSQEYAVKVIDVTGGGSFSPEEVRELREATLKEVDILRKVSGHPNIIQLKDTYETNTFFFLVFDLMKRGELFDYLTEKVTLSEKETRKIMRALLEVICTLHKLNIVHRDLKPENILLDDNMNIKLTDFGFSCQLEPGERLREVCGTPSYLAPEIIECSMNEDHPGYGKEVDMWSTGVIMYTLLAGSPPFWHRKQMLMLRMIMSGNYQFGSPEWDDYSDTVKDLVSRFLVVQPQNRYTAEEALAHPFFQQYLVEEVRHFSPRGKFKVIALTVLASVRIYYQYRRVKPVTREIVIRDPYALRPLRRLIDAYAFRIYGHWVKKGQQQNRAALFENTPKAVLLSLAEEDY

KinomeScan kinase panel [6] = biological target: T6, KinomeScan kinase panel (Homo sapiens, UniProt Q00526); settings: CDK3, 10 µM
T6 construct: purchased DiscoveRx (KinomeScan)
T6 sequence (Q00526 whole entry): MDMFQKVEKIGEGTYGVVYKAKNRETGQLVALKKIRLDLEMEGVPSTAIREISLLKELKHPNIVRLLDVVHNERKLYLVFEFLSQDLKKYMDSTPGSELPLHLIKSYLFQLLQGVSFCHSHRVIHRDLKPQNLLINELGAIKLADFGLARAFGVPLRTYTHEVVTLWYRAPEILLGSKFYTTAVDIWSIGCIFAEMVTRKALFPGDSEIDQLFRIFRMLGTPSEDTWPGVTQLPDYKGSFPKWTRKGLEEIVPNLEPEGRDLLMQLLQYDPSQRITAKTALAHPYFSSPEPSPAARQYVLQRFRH

KinomeScan kinase panel [7] = biological target: T7, KinomeScan kinase panel (Homo sapiens, UniProt Q8NFD2); settings: ANKK1, 10 µM; read-out: score (%)
T7 construct: purchased DiscoveRx (KinomeScan)
T7 sequence (Q8NFD2 1-765): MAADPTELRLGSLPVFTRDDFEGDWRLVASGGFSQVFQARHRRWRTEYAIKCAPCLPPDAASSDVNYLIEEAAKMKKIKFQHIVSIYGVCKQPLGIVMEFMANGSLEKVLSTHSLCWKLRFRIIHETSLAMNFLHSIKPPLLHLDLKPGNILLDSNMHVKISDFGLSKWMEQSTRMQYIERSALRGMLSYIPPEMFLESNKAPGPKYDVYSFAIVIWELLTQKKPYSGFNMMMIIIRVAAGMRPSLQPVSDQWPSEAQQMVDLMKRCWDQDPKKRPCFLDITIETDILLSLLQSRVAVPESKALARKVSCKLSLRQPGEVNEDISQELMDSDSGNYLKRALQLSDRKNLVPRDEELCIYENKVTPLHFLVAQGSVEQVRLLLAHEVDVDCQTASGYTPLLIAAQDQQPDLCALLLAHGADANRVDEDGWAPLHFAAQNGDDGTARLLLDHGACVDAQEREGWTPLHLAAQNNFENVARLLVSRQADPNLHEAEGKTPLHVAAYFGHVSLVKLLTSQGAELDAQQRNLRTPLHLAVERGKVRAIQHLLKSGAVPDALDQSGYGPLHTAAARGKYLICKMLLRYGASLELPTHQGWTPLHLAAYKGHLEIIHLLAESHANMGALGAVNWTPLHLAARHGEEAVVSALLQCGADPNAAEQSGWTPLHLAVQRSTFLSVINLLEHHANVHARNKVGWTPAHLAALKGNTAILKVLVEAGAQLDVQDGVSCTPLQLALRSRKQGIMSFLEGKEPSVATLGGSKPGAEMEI

| remaining binding at 10 µM (KinomeScan kinase panel [4]; PTK6, 10 µM) | Structure (SMILES) | remaining binding at 10 µM (KinomeScan kinase panel [1]) | score (%) (KinomeScan kinase panel [2]) | score (%) (KinomeScan kinase panel [3]) | remaining binding at 10 µM (KinomeScan kinase panel [4]; BRK, 10 µM) | remaining binding at 10 µM (KinomeScan kinase panel [5]) | score (%) (KinomeScan kinase panel [6]) | remaining binding at 10 µM (KinomeScan kinase panel [7]) |
| --- | --- | --- | --- | --- | --- | --- | --- | --- |
| – | CCN1CCN(Cc2ccc(NC(=O)c3ccc(C)c(C#Cc4cccnc4)c3)cc2C(F)(F)F)CC1 [XMD15-44] | 58% | 0.1% | 0.25% | 2.8% | 88% | 24% | 8.2% |
| 17% | CCN1CCN(Cc2ccc(NC(=O)c3ccc(C)c(/C=C/c4cnc5[nH]ccc5c4Cl)c3)cc2C(F)(F)F)CC1 [HG-6-63-01, (E)-3-(2-(4-chloro-1H-pyrrolo[2,3-b]pyridin-5-yl)vinyl)-N-(4-((4-ethylpiperazin-1-yl)methyl)-3-(trifluoromethyl)phenyl)-4-methylbenzamide] | > 30% | 1.1% | 23% | – | > 30% | nb (Hits values higher than 30% were considered negative (no binding: nb)) | 0.4% |
| – | CCN1CCN(Cc2ccc(NC(=O)c3ccc(C)c(NC(=O)c4cncc(-c5cccs5)c4)c3)cc2C(F)(F)F)CC1 [ALW-II-41-27] | > 30% | 0% | 0.95% | 8.2% | > 30% | nb (Hits values higher than 30% were considered negative (no binding: nb)) | 1.4% |
